The assay has as its target IDO (Homo sapiens, UniProt P14902). In words: LLE_IDO_ABS_DR (IDO assay).
Chain of IDO (P14902 whole entry): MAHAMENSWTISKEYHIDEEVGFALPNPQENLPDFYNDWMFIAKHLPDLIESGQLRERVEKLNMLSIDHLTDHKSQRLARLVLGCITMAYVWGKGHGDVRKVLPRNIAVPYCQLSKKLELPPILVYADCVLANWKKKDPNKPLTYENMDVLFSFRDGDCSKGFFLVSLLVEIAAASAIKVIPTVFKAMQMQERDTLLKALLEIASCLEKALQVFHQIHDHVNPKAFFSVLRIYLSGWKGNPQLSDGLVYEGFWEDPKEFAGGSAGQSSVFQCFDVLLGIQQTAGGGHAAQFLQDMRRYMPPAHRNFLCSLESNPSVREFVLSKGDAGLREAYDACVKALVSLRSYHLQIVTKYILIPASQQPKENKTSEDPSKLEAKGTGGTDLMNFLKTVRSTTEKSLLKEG
What is called IC50 is the concentration at which inhibition is half-maximal. Read a low IC50 as greater potency in that assay. With `O=C(Nc1ccc(OC(F)(F)F)cc1)Nc1cc(-c2ccccc2-c2nnn[nH]2)ccc1N(CCc1ccccc1)CCC(F)(F)F` [Example 331, 1-(4-(phenethyl(3,3,3-trifluoropropyl)amino)-2′-(1H-tetrazol-5-yl)-[1,1′-biphenyl]-3-yl)-3-(4-(trifluoromethoxy)phenyl)urea], the half-inhibitory concentration (IC50) was determined as 160 nM. To `Cc1ccc(NC(=O)Nc2cc(-c3ccccc3-c3nnn[nH]3)ccc2N(CCc2ccccc2)CCC(F)(F)F)cc1` [Example 334, 1-(4-(phenethyl(3,3,3-trifluoropropyl)amino)-2′-(1H-tetrazol-5-yl)-[1,1′-biphenyl]-3-yl)-3-(p-tolyl)urea] belongs 20 nM; to `O=C(Nc1cc(-c2ccccc2-c2nnn[nH]2)ccc1N(CCC(F)(F)F)Cc1ccc(Cl)cc1Cl)Nc1ccccc1C(F)(F)F` [Example 335, 1-(4-((2,4-dichlorobenzyl)(3,3,3-trifluoropropyl)amino)-2′-(1H-tetrazol-5-yl)-[1,1′-biphenyl]-3-yl)-3-(2-(trifluoromethyl)phenyl)urea], 1080 nM. As for `O=C(Nc1ccc(F)cc1F)Nc1cc(-c2ccccc2-c2nnn[nH]2)ccc1N(CCC(F)(F)F)Cc1ccc(Cl)cc1Cl` [Example 336, 1-(4-((2,4-dichlorobenzyl)(3,3,3-trifluoropropyl)amino)-2′-(1H-tetrazol-5-yl)-[1,1′-biphenyl]-3-yl)-3-(2,4-difluorophenyl) urea], the half-maximal inhibitory concentration (IC50) stood at 340 nM.

In turn, `O=C(Nc1ccc(OC(F)(F)F)cc1)Nc1cc(-c2ccccc2-c2nnn[nH]2)ccc1N(CCC(F)(F)F)Cc1ccc(Cl)cc1Cl` [Example 337, 1-(4-((2,4-dichlorobenzyl)(3,3,3-trifluoropropyl)amino)-2′-(1H-tetrazol-5-yl)-[1,1′-biphenyl]-3-yl)-3-(4-(trifluoromethoxy)phenyl)urea] displayed an IC50 of 410 nM. `O=C(Nc1cc(-c2ccccc2-c2nnn[nH]2)ccc1N(CCC(F)(F)F)Cc1ccc(F)cc1C(F)(F)F)Nc1ccccc1C(F)(F)F` [Example 338, 1-(4-((4-fluoro-2-(trifluoromethyl)benzyl)(3,3,3-trifluoropropyl)amino)-2′-(1H-tetrazol-5-yl)-[1,1′-biphenyl]-3-yl)-3-(2-(trifluoromethyl)phenyl)urea] had an IC50 of 490 nM.

`O=C(Nc1ccc(OC(F)(F)F)cc1)Nc1cc(-c2ccccc2-c2nnn[nH]2)ccc1N(CCC(F)(F)F)Cc1ccc(F)cc1C(F)(F)F` [Example 339, 1-(4-((4-fluoro-2-(trifluoromethyl)benzyl)(3,3,3-trifluoropropyl)amino)-2′-(1H-tetrazol-5-yl)-[1,1′-biphenyl]-3-yl)-3-(4-(trifluoromethoxy)phenyl)urea] displayed an IC50 of 160 nM. Regarding `O=C(Nc1cc(-c2ccccc2-c2nnn[nH]2)ccc1N(CCC(F)(F)F)Cc1ccc(OC(F)(F)F)cc1)Nc1ccccc1C(F)(F)F` [Example 342, 1-(2′-(1H-tetrazol-5-yl)-4-((4-(trifluoromethoxy)benzyl)(3,3,3-trifluoropropyl)amino)-[1,1′-biphenyl]-3-yl)-3-(2-(trifluoromethyl)phenyl)urea], it took 170 nM to reach half-maximal inhibition (IC50). Turning to `O=C(Nc1ccc(OC(F)(F)F)cc1)Nc1cc(-c2ccccc2-c2nnn[nH]2)ccc1N(CCC(F)(F)F)Cc1ccccn1` [Example 343, 1-(4-((pyridin-2-ylmethyl)(3,3,3-trifluoropropyl)amino)-2′-(1H-tetrazol-5-yl)-[1,1′-biphenyl]-3-yl)-3-(4-(trifluoromethoxy)phenyl)urea], the IC50 was 230 nM. This IC50 and that of the compound before are within 1.5-fold of each other. The result for `O=C(Nc1cc(-c2ccccc2-c2nnn[nH]2)ccc1N(CCC(F)(F)F)Cc1ccccn1)Nc1ccccc1C(F)(F)F` [Example 345, 1-(4-((pyridin-2-ylmethyl)(3,3,3-trifluoropropyl)amino)-2′-(1H-tetrazol-5-yl)-[1,1′-biphenyl]-3-yl)-3-(2-(trifluoromethyl)phenyl)urea] reads 820 nM; that for `O=C(Nc1ccc(C2CC2)cc1)Nc1cc(-c2ccccc2-c2nnn[nH]2)ccc1N1CCC(F)(F)C1` [Example 347, 1-(4-cyclopropylphenyl)-3-(4-(3,3-difluoropyrrolidin-1-yl)-2′-(1H-tetrazol-5-yl)-[1,1′-biphenyl]-3-yl)urea], 5260 nM; that for `O=C(Nc1ccc(C2CC2)cc1)Nc1cc(-c2ccccc2-c2nnn[nH]2)ccc1N(CCC(F)(F)F)Cc1ccc(F)cc1` [Example 350, 1-(4-cyclopropylphenyl)-3-(4-((4-fluorobenzyl)(3,3,3-trifluoropropyl)amino)-2′-(1H-tetrazol-5-yl)-[1,1′-biphenyl]-3-yl)urea], 250 nM.

`O=C(Nc1ccc(C2CC2)c(F)c1)Nc1cc(-c2ccccc2-c2nnn[nH]2)ccc1N(CCC(F)(F)F)Cc1ccc(Cl)cc1Cl` [Example 351, 1-(4-cyclopropyl-3-fluorophenyl)-3-(4-((2,4-dichlorobenzyl)(3,3,3-trifluoropropyl)amino)-2′-(1H-tetrazol-5-yl)-[1,1′-biphenyl]-3-yl)urea] came in with an IC50 of 350 nM. In turn, `O=C(Nc1ccc(C2CC2)c(F)c1)Nc1cc(-c2ccccc2-c2nnn[nH]2)ccc1N(CCC(F)(F)F)Cc1ccccn1` [Example 354, 1-(4-cyclopropyl-3-fluorophenyl)-3-(4-((pyridin-2-ylmethyl)(3,3,3-trifluoropropyl)amino)-2′-(1H-tetrazol-5-yl)-[1,1′-biphenyl]-3-yl)urea] showed a 50% inhibitory concentration (IC50) of 120 nM. This IC50 is about 2.9-fold lower than that of the compound before. Consider `Cc1ccc(NC(=O)Nc2cc(-c3ccccc3-c3nnn[nH]3)ccc2N2CCCc3ccccc32)cn1` [Example 362, 1-(4-(3,4-Dihydroquinolin-1(2H)-yl)-2′-(1H-tetrazol-5-yl)-[1,1′-biphenyl]-3-yl)-3-(6-methylpyridin-3-yl)urea], for which the IC50 was determined as 5490 nM. As to `O=C(Nc1ccc(OC(F)(F)F)cc1)Nc1cc(-c2ccccc2-c2nnn[nH]2)ccc1N1CCCc2ccccc21` [Example 363, 1-(4-(3,4-Dihydroquinolin-1(2H)-yl)-2′-(1H-tetrazol-5-yl)-[1,1′-biphenyl]-3-yl)-3-(4-(trifluoromethoxy)phenyl)urea], the midpoint of inhibition, the IC50, lay at 900 nM. For `O=C(Nc1ccc(C(F)(F)F)cc1F)Nc1cc(-c2ccccc2-c2nnn[nH]2)ccc1N1CCCc2ccccc21` [Example 364, 1-(4-(3,4-Dihydroquinolin-1(2H)-yl)-2′-(1H-tetrazol-5-yl)-[1,1′-biphenyl]-3-yl)-3-(2-fluoro-4-(trifluoromethyl)phenyl)urea], the IC50 worked out at 4670 nM. As to `O=C(Nc1ccc(F)nc1)Nc1cc(-c2ccccc2-c2nnn[nH]2)ccc1N1CCCc2ccccc21` [Example 365, 1-(4-(3,4-Dihydroquinolin-1(2H)-yl)-2′-(1H-tetrazol-5-yl)-[1,1′-biphenyl]-3-yl)-3-(6-fluoropyridin-3-yl)urea], the IC50 was determined as 5060 nM.

The compound `Cc1cc(NC(=O)Nc2cc(-c3ccccc3-c3nnn[nH]3)ccc2N2CCCc3ccccc32)on1` [Example 366, 1-(4-(3,4-Dihydroquinolin-1(2H)-yl)-2′-(1H-tetrazol-5-yl)-[1,1′-biphenyl]-3-yl)-3-(3-methylisoxazol-5-yl)urea] registered an IC50 of 5010 nM. For the compound `Cc1ccc(NC(=O)Nc2cc(-c3cc(F)ccc3C(=O)O)ccc2N(CCC(C)(C)O)Cc2ccc(Cl)cc2)cc1` [Example 374], half-maximal inhibition (IC50) required 6840 nM.

For `Cc1ccc(NC(=O)Nc2cc(-c3ccccc3-c3nnn[nH]3)ccc2N(CCC(C)(C)O)Cc2ccc(Cl)cc2)cc1` [Example 375], the IC50 was 4740 nM. For the compound `Cc1ccc(NC(=O)Nc2cc(-c3ccccc3-c3nnn[nH]3)ccc2N(CC(C)C)CC2CC(F)(F)C2)cc1` [Example 381], inhibition was half-maximal at 110 nM (IC50). Consider `Cc1ccc(NC(=O)Nc2cc(-c3ccccc3-c3nnn[nH]3)ccc2N2CCC(c3ccc(F)cc3)C2)cc1` (centres unmarked) [Example 386], for which the 50% inhibitory concentration (IC50) is 40 nM. `Cc1ccc(NC(=O)Nc2cc(-c3ccccc3-c3nnn[nH]3)ccc2N2CCC(c3ccc(F)cc3)C2)cn1` (centres unmarked) [Example 387] registered an IC50 of 2230 nM. On to `Cc1ccc(NC(=O)Nc2cc(-c3ccccc3-c3nnn[nH]3)ccc2N2CCC(c3nc(C)no3)C2)cn1` (centres unmarked) [Example 388], for which half-maximal inhibition (IC50) required 10000 nM. This IC50 lies about 4.5-fold higher than the previous one.

The compound `Cc1ccc(NC(=O)Nc2cc(-c3ccccc3-c3nnn[nH]3)ccc2N2CCC(c3nc(C)no3)C2)cc1` (centres unmarked) [Example 389] displayed an IC50 of 620 nM. The compound `Cc1noc(C2CCN(c3ccc(-c4ccccc4-c4nnn[nH]4)cc3NC(=O)Nc3ccc(C(F)(F)F)cc3F)C2)n1` (centres unmarked) [Example 390] showed a 50% inhibitory concentration (IC50) of 1590 nM. With `Cc1ccc(NC(=O)Nc2cc(-c3ccccc3-c3nnn[nH]3)ccc2N(Cc2ccc(Cl)cc2)C2CCCCC2)cc1` [Example 468], the IC50 came out at 80 nM. Regarding `Cc1ccc(NC(=O)Nc2cc(-c3cc(F)ccc3C(=O)O)ccc2N(Cc2ccc(Cl)cc2)C2CCCCC2)cc1` [Example 469], inhibition was half-maximal at 720 nM (IC50). The compound `O=C(Nc1ccccc1F)Nc1cc(-c2cc(F)ccc2C(=O)O)ccc1N(Cc1ccc(Cl)cc1)C1CCCCC1` [Example 470] registered an IC50 of 190 nM. With `C=C(C)CN(CC(F)(F)F)c1ccc(-c2ccccc2C(=O)O)cc1NC(=O)Nc1ccc(C)cc1` [Example 471], the IC50 is 40 nM.

`Cc1ccc(NC(=O)Nc2cc(-c3ccccc3C(=O)O)ccc2N(CC(C)C)CC(F)(F)F)cc1` [Example 474] showed a concentration for half-maximal inhibition (IC50) of 90 nM.

Consider `Cc1ccc(NC(=O)Nc2cc(-c3ccccc3-c3nnn[nH]3)ccc2N(CC(C)C)CC(F)(F)F)cc1` [Example 475], for which half-maximal inhibition (IC50) required 50 nM. Turning to `Cc1ccc(NC(=O)Nc2cc(-c3cc(F)ccc3C(=O)O)ccc2N(CC(C)C)CC(F)(F)F)cc1` [Example 476], inhibition was half-maximal at 140 nM (IC50). For `CN(c1ccc(-c2cc(F)ccc2C(=O)O)cc1NC(=O)Nc1ccccc1F)c1ccccc1C(C)(C)C` [Example 479], 3800 nM corresponded to half-maximal inhibition (IC50). To `CN(c1ccc(-c2ccccc2C(=O)O)cc1NC(=O)Nc1ccccc1F)c1ccccc1C(C)(C)C` [Example 480] belongs 1840 nM. With `Cc1ccc(NC(=O)Nc2cc(-c3ccccc3C(=O)O)ccc2N(C)c2ccccc2C(C)(C)C)cc1` [Example 481], the midpoint of inhibition, the IC50, lay at 1840 nM.

On to `Cc1ccc(NC(=O)Nc2cc(-c3ccccc3-c3nnn[nH]3)ccc2N(CCC(F)(F)F)Cc2ccc(Cl)cc2Cl)cc1` [Example 505, 1-(4-((2,4-Dichlorobenzyl)(3,3,3-trifluoropropyl)amino)-2′-(1H-tetrazol-5-yl)-[1,1′-biphenyl]-3-yl)-3-(p-tolyl)urea], for which 40 nM corresponded to half-maximal inhibition (IC50).

The values above are taken from patent US9758492B2, “IDO inhibitors” (Bristol-Myers Squibb Company, priority 2013, dated 2017).
